Assay [1] concerns Geotrichum candidum cells (GCC). In words: Function and activity of freeze-dried Geotrichum candidum culture. The assay is classed as cell-based. The text has this: A starter culture with Geotrichum candidum cells (GCC) was produced by ID growing GCC in a medium containing 10% glucose and other nutrients. […] The function and activity of GCC was reduced during such preservation process. […] Function and activity was expressed by measuring how many doses GCC culture with a standardized amount of activity and function can be obtained per liter fermentation broth.

For another assay, the system named is Human 1.1E7 beta cells. In words: 1.1E7 beta cell viability (trypan blue, Countess). The assay is classed as cell-based. The conditions noted are these: 10, 30, 45 mM glucose, with or without 5 mM ERT. On the procedure:
(§1) Cell culture: Human 1.1E7 beta cells were cultured in RPMI 1640 medium containing 10% fetal calf serum, 2 mM L-Glutamine and 1% penicillin/streptomycin. Cells were maintained at 37° C. in a 5% CO2 atmosphere.
Viability: Cells were seeded in a 24 well plate. After overnight attaching, the medium was removed and cells were washed with HBSS. […] After 1 hour incubation a vehicle or glucose solution was added to a final concentration of 10, 30 or 45 mM in the wells. Subsequently, cells were incubated for 24 hours, 48 hours, 6 days, and 7 days. After incubation, all cell material including medium and HBSS was collected and centrifuged (5 minutes, 500×g). Supernatant was removed and cells were resuspended in 100 μl HBSS. Cell suspensions were diluted 1:1 in 0.4% trypan blue dye and loaded in a Countess Chamber. Cells were counted using the Invitrogen Countess® automated cell counter (Life Technologies Europe BV, Bleiswijk, the Netherlands).

Assay [2] concerns Superoxide dismutases (total SOD, SOD1, SOD2). In words: SOD activity, expression and protein levels in HUVEC. The assay is classed as cell-based, human. The text has this: One of the reactive oxygen species of which the production is likely to be increased during hyperglycemia is the superoxide radical (O2•—), potentially due to an over-activation of the mitochondrial respiratory chain. Superoxide dismutases (SODs) constitute a family of enzymes that effectively reduces the amount of superoxide radicals by turning them into hydrogen peroxide and oxygen. SODs occur in the cytoplasma (copper, zinc SOD or SOD1) and in the mitochondrion (manganese SOD or SOD2). A third form (SOD3 or EC-SOD) is found extracellularly. […] Accordingly, the expression protein and activity levels of SOD2 (which is the inducible SOD) SOD1 and total SOD activity were studied.
The total SOD activity (U/mg protein), SOD1 activity, SOD2 activity, SOD2 expression (by RT-PCR), and SOD2 protein (by Western blot) were not affected by HGERT vs HG […].

The subject of a further assay is 7B2, PC1/3, PC2. In words: RT-PCR gene expression of insulin production related genes in 1.1E7 cells. The assay is classed as cell-based, human. Conditions: 1.1E7 cells, 10, 30, 45 mM glucose, 24 hours or 7 days, 5 mM ERT. Here is the method: as §1
Gene expression analysis: RNA was isolated from Qiazol suspended cells according to the manufacturer's protocol and quantified spectrophotometrically. Reverse transcription reaction was performed using 500 ng of RNA, which was reverse-transcribed into cDNA using iScript cDNA synthesis kit. Next, real time PCR was performed with a BioRad MyiQ iCycler Single Color RT-PCR detection system using Sensimix™Plus SYBR and Fluorescein, 5 μl diluted (10×) cDNA, and 0.3 μM primers in a total volume of 25 μl. PCR was conducted as follows: denaturation at 95° C. for 10 minutes, followed by 40 cycles of 95° C. for 15 seconds and 60° C. for 45 seconds. After PCR a melt curve (60-95° C.) was produced for product identification and purity. Actin was included as internal control. Data were analyzed using the MyIQ software system (Bio-Rad Laboratories BV, Veenendaal, the Netherlands) and were expressed as relative gene expression (fold change) using the 2^ΔΔCt method.
PC1/3 and PC2 are proprotein or prohormone covertases. […] 7B2 is a small neuroendocrine protein that is required for the production of active prohormone convertase 2 (PC2)

In assay [3] the test system is erythrocytes. The conditions noted are these: in vitro model of radical-induced hemolysis; cited from earlier work.
Assay [4] has as its system erythrocytes. Kind of assay: Radical-induced hemolysis of erythrocytes. Conditions: erythrocytes exposed to hyperglycemic conditions, 24 h incubation. The assay is classed as cell-based.
In a further assay the test system is HUVEC cells. In words: Eicosanoids in HUVEC pellets and supernatants. The assay is classed as cell-based, human. Here is the method: Another parameter evaluated in the targeted assays included the study of 23 eicosanoids in a comparison of HG versus HGERT conditions.
In studying the supernatants, 14,15-dihydroxy-5Z,8Z,11Z-eicosatrienoate (14,15-DiHETrE), produced from arachidonic acid via Cyp 2C and 2J to form epoxyeicosatrienoic acids (EETs), then converted to DiHETrE via sEH, decreased from 0.0085 to 0.0040 nM (p<0.05). This decrease in 14,15-DiHETrE is consistent with high glucose suppression of sEH, and should result in increased EETs, which would produce vasodilation. EETs were not, however, observed to be increased.

Assay [5] in a line: Human study in patients with Type 2 diabetes mellitus (blood glucose, insulin, C-peptide). The assay is classed as in vivo. The conditions noted are these: Type 2 diabetes patients, 12 g three times daily 28 days; before vs 2 hrs after 12 g intake. Here is the method:
A human study was conducted in patients with Type 2 diabetes mellitus. Patients were enrolled who were otherwise healthy patients with Type 2 diabetes mellitus as defined by fasting blood glucose >125 mg/dl or with ongoing treatment for Type 2 diabetes mellitus with the exception of insulin. […] Two hours after, blood drawings were taken again. […] After testing each variable for normality, a paired t-test was performed to determine statistical significance. For variables with a non-normal distribution, a Wilcoxon signed rank test was used. All analyses were performed using SPSS (IBM, version 19). Compliance was determined based on a count of empty sachets returned by study participants. Twenty-four subjects were enrolled and none withdrew from the study.

With `OC[C@@H](O)[C@@H](O)CO` [ERT, meso-1,2,3,4-tetrahydroxybutane], in assay [1] (2% ERT), the “Change in GCC cell activity and function (blank set at 100)” value (shortened to “Change in GCC cell activity and function”) is given as 120; the “improvement of GCC activity and function” value was 20%. This compound yielded a Doses/ltr fermentation broth in assay [1] (2% ERT added before freeze drying) of 621 Doses/ltr. Also, in assay [1] (3% ERT), the “Change in GCC cell activity and function” value is 126; the “improvement of GCC activity and function” value was 26%. In assay [1] (3% ERT added before freeze drying), the Doses/ltr fermentation broth amounted to 652 Doses/ltr. For the same compound, in assay [1] (5% ERT), the “Change in GCC cell activity and function” value turned out to be 107; the “increase of GCC activity and function” value is on record as 8%. The same compound came in with a Doses/ltr fermentation broth in assay [1] (5% ERT added before freeze drying) of 555 Doses/ltr. The “viability of 1.1E7 cells” value in the assay with Human 1.1E7 beta cells (6 and 7 days) is recorded as “entirely prevented this decrease in beta cell viability”. The “viability of 1.1E7 cells” value in the assay on Human 1.1E7 beta cells (24 and 48 hours) is “did not have any impact on this maintained viability”. In assay [2] (HGERT vs HG), the “total SOD activity, SOD1 activity, SOD2 activity, SOD2 expression (RT-PCR), SOD2 protein (Western blot)” value is given as “not affected”. Also, the “transcription and protein levels of SOD2” value in assay [2] (HUVEC) is on record as “did not affect transcription or the protein levels of SOD2”. For the same compound, the “total superoxide dismutase activity” value in assay [2] (hyperglycemic conditions, effect not significant) is given as “appeared to increase the total superoxide dismutase activity”. For the same compound, the “gene expression of 7B2, PC1/3 and PC2” value with 7B2, PC1/3, PC2 is “improved the expression of genes involved in the conversion of (pre)proinsulin to insulin”. In the assay with erythrocytes [3], the “onset of oxidative damage, ABTS-induced hemolysis” value is given as “able to delay the onset of oxidative damage”. In the assay on erythrocytes [4], the radical-induced hemolysis entry is listed as “able to inhibit radical-induced hemolysis”. Moreover, in the assay on HUVEC cells (HG vs HGERT), the “14,15-DiHETrE in supernatants” value came out at 4 pM and the TXB2 was found to be 1.20. For the same compound, in the assay with HUVEC cells (HGERT vs HG), the 12-HETE in pellets result is “decreasing 12-HETE levels”. In addition, in assay [5], the “blood C-peptide levels” value was “increase in blood C-peptide levels”, the blood glucose levels entry is reported as “borderline significant decrease in blood glucose levels” and the blood insulin levels entry is “non-significant increase in insulin levels”.

These data come from patent US20150104868A1, “Methods of Maintaining and Improving Biological Cell Function and Activity” (GARGILL INCORPORATED, priority 2012, published 2015).
